Measured values taken from patent US20140309171A1, “MARKER FOR BLOOD COAGULATION” (Universite Catholique De Louvain, priority 2011, published 2014).
Entries after “also recorded” stand apart in the source; their conditions may differ.

Assays:
Type in all cases: cell-based
[1] = system: myosin light chain (MLC) Ser 19 phosphorylation; assay: Western blot of MLC Ser19 phosphorylation in human platelets; settings: 0.1 U/ml thrombin, pre-incubation with STO-609
Procedure: (§1) Washed human platelets (used in in vitro studies). Platelets were obtained from adult healthy volunteers in accordance with the Ethics Commission of our institution (Commission d'Ethique Biomédicale Hospitalo-Facultaire, Université catholique de Louvain). Whole blood was collected with butterfly needle 21G into Sodium Citrate 1:10 solution (S-monovette). Platelet-rich plasma (PRP) was obtained by 15 min centrifugation at 330 g. The platelets pellet was then washed in Tyrode modified buffer (135 mM NaCl, 12 mM NaHCO3, 1 mM Sodium Citrate, 2.9 mM KCl, 0.3 mM Na2HPO4, 1 mM MgCl2, 5 mM D-glucose, 10 mM Hepes, 0.35% bovine serum albumin (BSA), pH 7.4 at 37° C.) and resuspended to a density of 2.5 10^5 platelets/μl for the measurement of intracellular Ca^2+ or platelet aggregation. […]
(§2) Proteins were separated as described (Miranda et al. 2010. J Clin Invest 103(6): 879-887). […] Bound antibodies were detected by enhanced chemiluminescence (Thermofisher). […] Band intensities were quantified by scanning and processing image intensities with the program ImageJ (1.33 for Mac OS X). The quantification of immunoblots presented in results was obtained after normalization using the internal loading control.

[2] = system: AMPK Thr172 phosphorylation in human platelets; assay: Western blot of AMPK Thr172 phosphorylation in human platelets; settings: 10 μM STO-609, thrombin-treated human platelets (not shown)
Procedure: Washed human platelets (used in in vitro studies). Platelets were obtained from adult healthy volunteers in accordance with the Ethics Commission of our institution (Commission d'Ethique Biomédicale Hospitalo-Facultaire, Université catholique de Louvain). Whole blood was collected with butterfly needle 21G into Sodium Citrate 1:10 solution (S-monovette). Platelet-rich plasma (PRP) was obtained by 15 min centrifugation at 330 g. The platelets pellet was then washed in Tyrode modified buffer (135 mM NaCl, 12 mM NaHCO3, 1 mM Sodium Citrate, 2.9 mM KCl, 0.3 mM Na2HPO4, 1 mM MgCl2, 5 mM D-glucose, 10 mM Hepes, 0.35% bovine serum albumin (BSA), pH 7.4 at 37° C.) and resuspended to a density of 2.5 10^5 platelets/μl for the measurement of intracellular Ca^2+ or platelet aggregation. For Western Blot analysis, PRP with eptifibatide 4 μg/ml (Integriline, GlaxoSmithKline) and ectonucleotidase apyrase (grade I) 0.5 U/ml was layered over a density barrier of iodixanol (Optiprep®) that allowed the erythrocytes and leucocytes to pellet during centrifugation at 350 g for 15 min. […] Bound antibodies were detected by enhanced chemiluminescence (Thermofisher). […] Band intensities were quantified by scanning and processing image intensities with the program ImageJ (1.33 for Mac OS X). The quantification of immunoblots presented in results was obtained after normalization using the internal loading control.

[3] = system: cofilin Ser3 phosphorylation; assay: Western blot of cofilin Ser3 phosphorylation in human platelets; settings: 0.1 U/ml thrombin, 10 μM STO-609, 10 min after thrombin exposure
Procedure: as §1, §2

[4] = system: TXB2 formation in human platelets; assay: Thromboxane B2 assay in platelet supernatants; settings: 10 μM STO-609, 0.1 U/ml thrombin for 5 min
Procedure: After 2 min pre-incubation with 10 μM STO-609 or DMSO, washed platelets were treated with 0.1 U/ml thrombin for 5 min. Negative controls corresponded to platelets activated by thrombin in the presence of 1 mM acetylsalicylic acid (ASA). Platelet suspensions were pelleted (quick speed), and TXB2 in the supernatants was assayed according to the manufacturers instructions (Enzo Life Sciences).

SMILES: O=C(O)c1ccc2c3c1cccc3c(=O)n1c3ccccc3nc21 [STO-609]
- thrombin-induced MLC phosphorylation, effect of pre-incubation [1]: decreased significantly; also recorded: prevents
- AMPK activation, as judged by phosphorylation of AMPK Thr172 [2]: markedly reduced
- thrombin-induced cofilin phosphorylation, effect of pre-incubation [3]: significantly decreased; also recorded: prevents
- thrombin-induced TXB2 formation [4]: not affect
